# According to patent US20040127439A1, “Introduction of the wld gene for prevention of axonal degeneration in neurological diseases” (priority 2004, published 2004):
# How the values were obtained:
# [1] = system: Wld^S DRG axons; test: Vincristine withdrawal in Wld^S mouse DRG cultures; assay type: cell-based; conditions: 0.05 μM vincristine for 24 hours
# Experimental: The methods for DRG culture have been previously described.
# Cultures were measured for length of longest axon and area of the DRG halo at days 4, 8, 12, 16 and 20. Lengths were measured from the center of the DRG to the visible distal end of the axon, and areas were calculated by tracing the circumference crested by connecting the tips of the remaining axons. […] Comparisons were made between quantitative data for C57BL/6 and Wld^S axons. For assessment of growth, day 4 observations in Wld^S were compared to all succeeding days using ANOVA for repeated measures.
# [2] = system: Wld^S cultured neurites; test: Vincristine neuropathy in Wld^S mouse DRG cultures; assay type: cell-based; conditions: for halo area at day 10 compared to day 0 / length of longest axons at day 10 compared to day 0: Wld^S
# Experimental: DRGs were allowed to mature for 5 days to create a lush halo of neurites. […] This date was defined as treatment day 0. […] Cultures were monitored and imaged on day 0, day 4, day 8 and day 10 of treatment using video microscopy.
# Measures of axonal survival were the length of longest remaining axon, and the area of remaining DRG halo, as determined by serial phase-contrast video microscopy (FIG. 6). The axonal length was measured from the center of the DRG to the visible distal end of the axon. […] Data were thus analyzed as percent of day 0.
substance,measurement,setting,value
Vincristine sulfate salt,duration of growth arrest,[1],10 days
same,"area after resumed growth, % of control values",[1]; 20-day observation period,150%
same,"length after resumed growth, % of control values",[1]; 20-day observation period,125%
same,halo area at day 10 compared to day 0,[2]; vincristine 0.01 μM,64.75±2.62%
same,length of longest axons at day 10 compared to day 0,[2]; vincristine 0.01 μM,84.33±2.54%
same,halo area at day 10 compared to day 0,[2]; vincristine 0.1 μM,7.92±3.83%
same,length of longest axons at day 10 compared to day 0,[2]; vincristine 0.1 μM,10.17±3.22%
same,Area of DRG Halo,"[2]; vincristine 0.01 μM, Day 4, Wld^S",7.27 ± 0.51 mm^2
same,Area of DRG Halo,"[2]; vincristine 0.01 μM, Day 8, Wld^S",6.50 ± 0.56 mm^2
same,Area of DRG Halo,"[2]; vincristine 0.01 μM, Day 10, Wld^S",5.60 ± 0.51 mm^2
same,Area of DRG Halo,"[2]; vincristine 0.02 μM, Day 4, Wld^S",5.95 ± 0.72 mm^2
same,Area of DRG Halo,"[2]; vincristine 0.02 μM, Day 8, Wld^S",3.39 ± 0.64 mm^2
same,Area of DRG Halo,"[2]; vincristine 0.02 μM, Day 10, Wld^S",2.53 ± 0.59 mm^2
same,Area of DRG Halo,"[2]; vincristine 0.05 μM, Day 4, Wld^S",4.17 ± 0.45 mm^2
same,Area of DRG Halo,"[2]; vincristine 0.05 μM, Day 8, Wld^S",1.63 ± 0.48 mm^2
same,Area of DRG Halo,"[2]; vincristine 0.05 μM, Day 10, Wld^S",0.80 ± 0.36 mm^2
same,Area of DRG Halo,"[2]; vincristine 0.1 μM, Day 4, Wld^S",5.30 ± 0.86 mm^2
same,Area of DRG Halo,"[2]; vincristine 0.1 μM, Day 8, Wld^S",2.00 ± 0.66 mm^2
same,Area of DRG Halo,"[2]; vincristine 0.1 μM, Day 10, Wld^S",0.59 ± 0.28 mm^2
